Experiments:
[1] = system: panel of 144 protein kinases; assay: SelectScreen panel of 144 protein kinases; assay type: biochemical; details: incl. PKC isoforms, OSR1, SPAK, WNK
mice = assay: KA induced ongoing SE, EEG, treatment with DZ or DZ/Compound A 2 h after KA; assay type: in vivo; details: given 2 h after KA
Description: EEG recordings and analysis. WT C57Bl/6J adult male mice (12 weeks) were anesthetized with isofluorane and implanted with EEG/EMG electrodes and allowed to recover for 7 days prior to experimentation. […] 2 h following KA administration mice were injected with a saturating concentration of diazepam (DZ) 10 mg/kg (IP) and recordings were extended for a further 60 min. […] LabChart 8 software was used for data analysis. Epileptiform activity was identified by changes in the amplitude of electrographic activity characterized by consistent changes in the power of the Fast Fourier transform (FFT) of the EEG and abnormal activity characterized by periods of rhythmic spiking lasting longer than 30 s (Moore et al., 2017, supra; Silayeva et al., 2015, supra; Sivakumaran et al., J. Neurosci. 35, 8291-8296 (2015)).
To evaluate the potential of KCC2 activators to terminate ongoing SE, the KA model described above was employed. Mice were injected with KA (20 mg/Kg; IP). […] Spectral data were then subjected to FFT and the total EEG power between 1-100 Hz of the 2 h following KA treatment (pre-drug) and 30 min following their injection (post-drug) were compared (FIG. 6B). In mice treated with DZ alone variable effects were observed, from large increases to modest reductions in EEG power, but these effects were not significant (FIG. 6C; pre=1.1±0.2×10^−6, post=4.4±7.4×10^−7 μV^2, p=0.214, n=13-14 mice). […]

SMILES	activity of a panel of 144 protein kinases [1]	mice insensitive to the effects of DZ on EEG power (mice)
C[C@@H]1CN(c2nc3c(c(Nc4ccc(C5CCCCC5)cc4)n2)COC3)CCO1 [Compound A, (R)-N-(4-cyclohexylphenyl)-2-(2-methylmorpholino)-5,7-dihydrofuro[3,4-d]pyrimidin-4-amine]	did not modify the activity	abolished
CN1C(=O)CN=C(c2ccccc2)c2cc(Cl)ccc21 [DZ, diazepam, reference compound]	–	62%

Reference: US20250281500A1, “FUSED AMINO PYRIMIDINE COMPOUNDS AND PRIDOPIDINE FOR TREATMENT OF HUNTINGTON’S DISEASE” (Ovid Therapeutics Inc., priority 2024, published 2025)
